#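 These data come from cells grown in 96-well plates and exposed to compound for 48 hours at five concentrations. Here, GI50 denotes the concentration required for 50% inhibition of growth.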 Calls of active or inactive are those of the source. Rule as the data show it: active = GI50 up to about 1.1 µM and inactive = higher.
# Tests used:
# Experiment in all cases: DTP human tumour cell line panel, 48 h
# 786-0 = tested on: 786-0
# A498 = tested on: A498
# A549 = tested on: A549
# ACHN = tested on: ACHN
# CAKI-1 = tested on: CAKI-1
# CCRF-CEM = tested on: CCRF-CEM
# COLO 205 = tested on: COLO 205
# DLD-1 = tested on: DLD-1
# DMS-114 = tested on: DMS-114
# DMS-273 = tested on: DMS-273
# EKVX = tested on: EKVX
# HCC 2998 = tested on: HCC 2998
# HCT-116 = tested on: HCT-116
# HCT-15 = tested on: HCT-15
# HL-60 = tested on: HL-60
# HOP-18 = tested on: HOP-18
# HOP-62 = tested on: HOP-62
# HOP-92 = tested on: HOP-92
# HT-29 = tested on: HT-29
# IGROV-1 = tested on: IGROV-1
# K562 = tested on: K562
# KM-20L2 = tested on: KM-20L2
# KM12 = tested on: KM12
# LOX IMVI = tested on: LOX IMVI
# LXFL 529 = tested on: LXFL 529
# M14 = tested on: M14
# M19-MEL = tested on: M19-MEL
# MOLT-4 = tested on: MOLT-4
# Malme-3M = tested on: Malme-3M
# NCI-H226 = tested on: NCI-H226
# NCI-H23 = tested on: NCI-H23
# NCI-H460 = tested on: NCI-H460
# NCI-H522 = tested on: NCI-H522
# OVCAR-4 = tested on: OVCAR-4
# OVCAR-5 = tested on: OVCAR-5
# OVCAR-8 = tested on: OVCAR-8
# RPMI-8226 = tested on: RPMI-8226
# RXF 393 = tested on: RXF 393
# SF-268 = tested on: SF-268
# SF-295 = tested on: SF-295
# SF-539 = tested on: SF-539
# SK-MEL-28 = tested on: SK-MEL-28
# SK-MEL-2 = tested on: SK-MEL-2
# SK-MEL-5 = tested on: SK-MEL-5
# SK-OV-3 = tested on: SK-OV-3
# SN12C = tested on: SN12C
# SNB-19 = tested on: SNB-19
# SNB-75 = tested on: SNB-75
# SNB-78 = tested on: SNB-78
# SW-620 = tested on: SW-620
# TK-10 = tested on: TK-10
# U-251 = tested on: U-251
# UACC-257 = tested on: UACC-257
# UACC-62 = tested on: UACC-62
# UO-31 = tested on: UO-31
# XF498 = tested on: XF498
# OVCAR-3 = tested on: OVCAR-3
# SR = tested on: SR
smiles,measurement,setting,value
Oc1cc(-c2ccccc2)nc2cc(Cl)ccc12,GI50,786-0,0.507 µM (active)
same,GI50,A498,1.35 µM (inactive)
same,GI50,A549,0.515 µM (active)
same,GI50,ACHN,0.914 µM (active)
same,GI50,CAKI-1,0.283 µM (active)
same,GI50,CCRF-CEM,0.432 µM (active)
same,GI50,COLO 205,0.697 µM (active)
same,GI50,DLD-1,0.384 µM (active)
same,GI50,DMS-114,0.383 µM (active)
same,GI50,DMS-273,0.526 µM (active)
same,GI50,EKVX,> 100 µM (inactive)
same,GI50,HCC 2998,0.897 µM (active)
same,GI50,HCT-116,0.339 µM (active)
same,GI50,HCT-15,0.387 µM
same,GI50,HL-60,0.24 µM (active)
same,GI50,HOP-18,11.2 µM (inactive)
same,GI50,HOP-62,1.31 µM (inactive)
same,GI50,HOP-92,0.376 µM (active)
same,GI50,HT-29,2 µM (inactive)
same,GI50,IGROV-1,0.54 µM (active)
same,GI50,K562,0.382 µM (active)
same,GI50,KM-20L2,1.52 µM (inactive)
same,GI50,KM12,0.695 µM (active)
same,GI50,LOX IMVI,0.869 µM (active)
same,GI50,LXFL 529,0.805 µM (active)
same,GI50,M14,0.555 µM (active)
same,GI50,M19-MEL,0.575 µM (active)
same,GI50,MOLT-4,0.675 µM (active)
same,GI50,Malme-3M,0.42 µM (active)
same,GI50,NCI-H226,7.67 µM (inactive)
same,GI50,NCI-H23,1.1 µM (active)
same,GI50,NCI-H460,0.417 µM (active)
same,GI50,NCI-H522,0.112 µM (active)
same,GI50,OVCAR-4,9.14 µM (inactive)
same,GI50,OVCAR-5,> 100 µM (inactive)
same,GI50,OVCAR-8,0.74 µM (active)
same,GI50,RPMI-8226,0.422 µM (active)
same,GI50,RXF 393,0.157 µM (active)
same,GI50,SF-268,1.21 µM (inactive)
same,GI50,SF-295,0.368 µM (active)
same,GI50,SF-539,0.412 µM (active)
same,GI50,SK-MEL-28,17.9 µM (inactive)
same,GI50,SK-MEL-2,0.445 µM (active)
same,GI50,SK-MEL-5,0.191 µM (active)
same,GI50,SK-OV-3,0.493 µM (active)
same,GI50,SN12C,3.3 µM (inactive)
same,GI50,SNB-19,0.527 µM (active)
same,GI50,SNB-75,0.352 µM (active)
same,GI50,SNB-78,3.34 µM (inactive)
same,GI50,SW-620,0.34 µM (active)
same,GI50,TK-10,27.7 µM (inactive)
same,GI50,U-251,0.509 µM (active)
same,GI50,UACC-257,14.1 µM (inactive)
same,GI50,UACC-62,0.294 µM (active)
same,GI50,UO-31,5.06 µM (inactive)
same,GI50,XF498,0.304 µM (active)
O=C1CCC2(c3ccc(F)cc3)Nc3cc(Cl)ccc3N12 (stereo unspecified),GI50,786-0,> 100 µM (inactive)
same,GI50,A498,> 100 µM (inactive)
same,GI50,A549,59.4 µM (inactive)
same,GI50,ACHN,54.6 µM (inactive)
same,GI50,CCRF-CEM,> 100 µM (inactive)
same,GI50,COLO 205,> 100 µM (inactive)
same,GI50,DLD-1,> 100 µM (inactive)
same,GI50,DMS-114,38.8 µM (inactive)
same,GI50,DMS-273,> 100 µM (inactive)
same,GI50,EKVX,> 100 µM (inactive)
same,GI50,HCT-116,67.8 µM (inactive)
same,GI50,HCT-15,> 100 µM
same,GI50,HL-60,63.4 µM (inactive)
same,GI50,HOP-18,48.3 µM (inactive)
same,GI50,HOP-62,> 100 µM (inactive)
same,GI50,HT-29,> 100 µM (inactive)
same,GI50,IGROV-1,> 100 µM (inactive)
same,GI50,K562,44.6 µM (inactive)
same,GI50,KM-20L2,> 100 µM (inactive)
same,GI50,KM12,> 100 µM (inactive)
same,GI50,LOX IMVI,> 100 µM (inactive)
same,GI50,LXFL 529,65.5 µM (inactive)
same,GI50,M14,> 100 µM (inactive)
same,GI50,M19-MEL,> 100 µM (inactive)
same,GI50,MOLT-4,37.2 µM (inactive)
same,GI50,Malme-3M,59.7 µM (inactive)
same,GI50,NCI-H226,38.5 µM (inactive)
same,GI50,NCI-H23,38.3 µM (inactive)
same,GI50,NCI-H522,48.6 µM (inactive)
same,GI50,OVCAR-3,86.5 µM (inactive)
same,GI50,OVCAR-4,48.6 µM (inactive)
same,GI50,OVCAR-8,> 100 µM (inactive)
same,GI50,RPMI-8226,76.7 µM (inactive)
same,GI50,RXF 393,88.9 µM (inactive)
same,GI50,SF-268,> 100 µM (inactive)
same,GI50,SF-295,60.5 µM (inactive)
same,GI50,SF-539,> 100 µM (inactive)
same,GI50,SK-MEL-28,> 100 µM (inactive)
same,GI50,SK-MEL-2,> 100 µM (inactive)
same,GI50,SK-MEL-5,45.5 µM (inactive)
same,GI50,SK-OV-3,> 100 µM (inactive)
same,GI50,SN12C,> 100 µM (inactive)
same,GI50,SNB-19,> 100 µM (inactive)
same,GI50,SNB-75,> 100 µM (inactive)
same,GI50,SNB-78,> 100 µM (inactive)
same,GI50,SR,43.4 µM (inactive)
same,GI50,SW-620,> 100 µM (inactive)
same,GI50,U-251,> 100 µM (inactive)
same,GI50,UACC-257,90.4 µM (inactive)
same,GI50,UACC-62,66.1 µM (inactive)
same,GI50,UO-31,94.2 µM (inactive)
same,GI50,XF498,20.1 µM (inactive)
O=C(/C=C/c1ccccc1)c1ccc(NCc2nc3ccccc3[nH]2)cc1,GI50,786-0,3.81 µM (inactive)
same,GI50,A498,5.24 µM (inactive)
same,GI50,A549,4.35 µM (inactive)
same,GI50,ACHN,7.66 µM (inactive)
same,GI50,CAKI-1,10.1 µM (inactive)
same,GI50,CCRF-CEM,2.48 µM (inactive)
same,GI50,COLO 205,3.21 µM (inactive)
same,GI50,DLD-1,4.27 µM (inactive)
same,GI50,DMS-114,2.56 µM (inactive)
same,GI50,DMS-273,4.5 µM (inactive)
same,GI50,EKVX,8.65 µM (inactive)
same,GI50,HCC 2998,2.12 µM (inactive)
same,GI50,HCT-116,3.22 µM (inactive)
same,GI50,HCT-15,4.11 µM
same,GI50,HL-60,2.33 µM (inactive)
same,GI50,HOP-18,2.34 µM (inactive)
same,GI50,HOP-62,11.2 µM (inactive)
same,GI50,HOP-92,6.18 µM (inactive)
same,GI50,HT-29,2.58 µM (inactive)
same,GI50,IGROV-1,6.56 µM (inactive)
same,GI50,K562,2.51 µM (inactive)
same,GI50,KM-20L2,2.9 µM (inactive)
same,GI50,KM12,1.95 µM (inactive)
same,GI50,LOX IMVI,1.69 µM (inactive)
same,GI50,LXFL 529,2.83 µM (inactive)
same,GI50,M14,9.02 µM (inactive)
same,GI50,M19-MEL,4.41 µM (inactive)
same,GI50,MOLT-4,3.56 µM (inactive)
same,GI50,Malme-3M,13.3 µM (inactive)
same,GI50,NCI-H226,4.19 µM (inactive)
same,GI50,NCI-H23,2.55 µM (inactive)
same,GI50,NCI-H460,3.27 µM (inactive)
same,GI50,NCI-H522,4.14 µM (inactive)
same,GI50,OVCAR-3,2.8 µM (inactive)
same,GI50,OVCAR-4,9.23 µM (inactive)
same,GI50,OVCAR-5,10.8 µM (inactive)
same,GI50,OVCAR-8,3.49 µM (inactive)
same,GI50,RPMI-8226,2.29 µM (inactive)
same,GI50,RXF 393,5.22 µM (inactive)
same,GI50,SF-268,6.44 µM (inactive)
same,GI50,SF-295,3.48 µM (inactive)
same,GI50,SF-539,2.17 µM (inactive)
same,GI50,SK-MEL-28,18 µM (inactive)
same,GI50,SK-MEL-2,12.7 µM (inactive)
same,GI50,SK-MEL-5,2.45 µM (inactive)
same,GI50,SK-OV-3,6.37 µM (inactive)
same,GI50,SN12C,5.33 µM (inactive)
same,GI50,SNB-19,6.1 µM (inactive)
same,GI50,SNB-75,4.61 µM (inactive)
same,GI50,SNB-78,4.9 µM (inactive)
same,GI50,SR,16.1 µM (inactive)
same,GI50,SW-620,2.75 µM (inactive)
same,GI50,TK-10,11.7 µM (inactive)
same,GI50,U-251,1.91 µM (inactive)
same,GI50,UACC-257,3.73 µM (inactive)
same,GI50,UACC-62,8.05 µM (inactive)
same,GI50,UO-31,7.21 µM (inactive)
same,GI50,XF498,7.6 µM (inactive)

# Reference: ChEMBL document CHEMBL1201862, “PubChem BioAssay data set” (2004)
